Experimental findings from US6348201B2, “External composition for skin comprising sphingoglycolipid” (Kibun Food Chemifa Co., Ltd., priority 1997, dated 2002) are described below.

In the assay the test system is hairless mice (Skh:hr-1). The assay is described as follows: Test for evaluating moisturizing and skin roughness prevention effects: transcutaneous transpiration measured with a hydrograph. In kind it is in vivo. To be noted: 10th day, average of five mice, relative to control (0.5% Triton X-150, 9 g/m^2/h) as 100; Triton X-150 pretreated, middle-wavelength UV 0.15 J/cm^2, samples applied once a day on rear back. The method, then:
Twenty male hairless mice of 9-week old (Skh:hr-1, Nihon SLC) were treated with 0.5% Triton X-150 (50 μl) in a circular area of 2.5 cm diameter on their rear backs. The once-a-day application was continued for 5 days. On the 6th day and thereafter, middle-wavelength UV light was irradiated at a dose of 0.15 J/cm^2 using a SE lamp (manufactured by Toshiba Medical Instruments Co., Ltd.), and Samples 1 to 5 (dissolved in 0.5% Triton X-150) listed below and control sample (0.5% Triton X-150) were applied. These procedures were followed once a day and continued up to the 10th day. Five hairless mice were subjected to each test for Samples or the control.
After the middle-wavelength UV irradiation and the sample application were completed on the 10th day, amount of transcutaneous transpiration was measured using a hydrograph (model AMU-3: manufactured by Fauchon Co., Ltd.) to determine an average value for the five mice. Results were shown in the table below, where the values are expressed in relative values assuming the control (9 g/m^2/h) as 100.
Regarding `CCCCCCCCCCCCC/C=C\C(O)C(CO)NC(=O)O[C@@H]1O[C@H](CO)[C@H](O)[C@H](O)[C@H]1O` (stereo partly drawn) [Sample 5 (comparison), Galactocerebroside], the Relative transcutaneous transpiration is on record as 91.

On to Ganglioside [Sample 4 (comparison)], for which the Relative transcutaneous transpiration came to 89.

As for “Glyceroglycolipid [Sample 3 (comparison)]”, the Relative transcutaneous transpiration amounted to 123.
